Test results reported in ChEMBL document CHEMBL1152086, “Synthesis and in vitro anti-HIV and antitumor activity of new 2-chloroethyl thiocarbamates” (1995).
Active and inactive are the calls of the source. The rule behind the calls is not given here.

Experiments:
[1] = tested on: K562; test: In vitro anticancer activity against K-562 leukemia cell line; format: functional; details: Homo sapiens
[2] = In vitro anticancer activity against 9 NCI melanoma cell lines; inactive; format: functional
[3] = tested on: NCI; test: In vitro anticancer activity against 6 NCI ovarian cancer cell lines; inactive; format: functional, cell-based
[4] = tested on: Cancer cell lines; test: In vitro anticancer activity against 9 NCI colon cancer cell lines; inactive; format: functional, cell-based
[5] = tested on: SCLC; test: In vitro anticancer activity against 2 NCI SCLC cell lines; inactive; format: functional, cell-based
[6] = tested on: NSCLC; test: In vitro anticancer activity against 11 NCI NSCLC cell lines; inactive; format: functional, cell-based
[7] = tested on: MOLT-4; test: In vitro anticancer activity against MOLT-4 leukemia cell line; format: functional; details: Homo sapiens
[8] = tested on: HL-60; test: In vitro anticancer activity against HL-60(TB) leukemia cell line; format: functional; details: Homo sapiens
[9] = tested on: SR; test: In vitro anticancer activity against SR leukemia cell line; format: functional; details: Homo sapiens
[10] = tested on: NCI; test: In vitro anticancer activity against 8 NCI CNS cancer cell lines; inactive; format: functional, cell-based
[11] = tested on: NCI; test: In vitro anticancer activity against 9 NCI renal cancer cell lines; inactive; format: functional, cell-based
[12] = tested on: CCRF-CEM; test: In vitro anticancer activity against CCRF-CEM leukemia cell line.(Maximum Concentration); format: functional; details: Homo sapiens
[13] = tested on: RPMI-8226; test: In vitro anticancer activity against RPMI-8226 leukemia cell line; format: functional; details: Homo sapiens
[14] = tested on: CCRF-CEM; test: In vitro anticancer activity against CCRF-CEM leukemia cell line; format: functional; details: Homo sapiens

Row | Structure (SMILES) | GI50 [1] [µM] | Activity [2] | Activity [3] | Activity [4] | Activity [5] | Activity [6] | GI50 [7] [µM] | GI50 [8] [µM] | GI50 [9] [µM] | Activity [10] | Activity [11] | GI50 [12] [µM] | GI50 [13] [µM] | GI50 [14] [µM]
1 | O=C(NCCCl)SCCO | > 100 | inactive | inactive | inactive | inactive | inactive | > 100 | > 100 | > 100 | inactive | inactive | > 100 | > 100 | 
2 | CCOC(=O)CSC(=O)NCCCl | 29 | inactive | inactive | inactive | inactive | inactive | > 100 | 22.3 | > 100 | inactive | inactive |  | > 100 | 7.22
3 | O=C(NCCCl)Sc1ccccc1 |  | inactive | inactive | inactive | inactive | inactive |  |  |  | inactive | inactive |  |  | 
